Consider 21 compounds from patent US20250122183A1 (Pfizer Inc., priority 2023, published 2025).

Type in all cases: biochemical
For one assay, the target named is KAT6A Full length enzyme (Homo sapiens (Human), UniProt Q92794). As to the kind of experiment: KAT6A assay (SAMDI-MS acetylation of H3 1-21 peptide). Particulars: Morrison equation fit; replicate number in parentheses; read-out: KAT6A Ki (nM) (replicate number).
A further assay concerns the target KAT5 Full length enzyme (Homo sapiens (Human), UniProt Q92993). As to the kind of experiment: KAT5 assay (SAMDI-MS acetylation of H4 1-21 peptide). Conditions: Morrison equation fit; replicate number in parentheses; read-out: KAT5 Ki (nM) (replicate number).
The target of assay [1] is KAT7+JADE1+EAF6+ING5 4 protein complex (Homo sapiens (Human), UniProt O95251). Put plainly: KAT7 JADE1 assay (SAMDI-MS acetylation of H3 1-21 peptide). Particulars: Morrison equation fit; replicate number in parentheses; read-out: KAT7 JADE1 Ki (nM) (replicate number).
For another assay, the target named is KAT8 Full length enzyme (Homo sapiens (Human), UniProt Q9H7Z6). As to the kind of experiment: KAT8 assay (SAMDI-MS acetylation of H3 1-21 peptide). Particulars: Morrison equation fit; replicate number in parentheses; read-out: KAT8 Ki (nM) (replicate number).
KAT8 Full length enzyme, sequence (Q9H7Z6 whole entry): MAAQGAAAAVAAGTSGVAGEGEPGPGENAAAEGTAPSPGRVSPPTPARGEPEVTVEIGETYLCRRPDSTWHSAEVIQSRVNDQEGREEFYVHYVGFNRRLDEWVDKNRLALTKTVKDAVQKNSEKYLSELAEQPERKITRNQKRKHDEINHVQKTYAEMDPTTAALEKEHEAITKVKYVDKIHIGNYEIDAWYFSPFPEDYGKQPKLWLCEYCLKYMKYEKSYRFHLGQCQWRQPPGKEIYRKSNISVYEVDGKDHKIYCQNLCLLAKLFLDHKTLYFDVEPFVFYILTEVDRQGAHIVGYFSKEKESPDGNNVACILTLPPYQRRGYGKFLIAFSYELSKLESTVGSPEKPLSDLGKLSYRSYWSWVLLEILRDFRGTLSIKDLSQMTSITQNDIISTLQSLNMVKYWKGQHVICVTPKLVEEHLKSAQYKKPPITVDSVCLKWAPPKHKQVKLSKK

KAT6A Full length enzyme, sequence (Q92794 other isoform, or with tags, fused parts or gaps): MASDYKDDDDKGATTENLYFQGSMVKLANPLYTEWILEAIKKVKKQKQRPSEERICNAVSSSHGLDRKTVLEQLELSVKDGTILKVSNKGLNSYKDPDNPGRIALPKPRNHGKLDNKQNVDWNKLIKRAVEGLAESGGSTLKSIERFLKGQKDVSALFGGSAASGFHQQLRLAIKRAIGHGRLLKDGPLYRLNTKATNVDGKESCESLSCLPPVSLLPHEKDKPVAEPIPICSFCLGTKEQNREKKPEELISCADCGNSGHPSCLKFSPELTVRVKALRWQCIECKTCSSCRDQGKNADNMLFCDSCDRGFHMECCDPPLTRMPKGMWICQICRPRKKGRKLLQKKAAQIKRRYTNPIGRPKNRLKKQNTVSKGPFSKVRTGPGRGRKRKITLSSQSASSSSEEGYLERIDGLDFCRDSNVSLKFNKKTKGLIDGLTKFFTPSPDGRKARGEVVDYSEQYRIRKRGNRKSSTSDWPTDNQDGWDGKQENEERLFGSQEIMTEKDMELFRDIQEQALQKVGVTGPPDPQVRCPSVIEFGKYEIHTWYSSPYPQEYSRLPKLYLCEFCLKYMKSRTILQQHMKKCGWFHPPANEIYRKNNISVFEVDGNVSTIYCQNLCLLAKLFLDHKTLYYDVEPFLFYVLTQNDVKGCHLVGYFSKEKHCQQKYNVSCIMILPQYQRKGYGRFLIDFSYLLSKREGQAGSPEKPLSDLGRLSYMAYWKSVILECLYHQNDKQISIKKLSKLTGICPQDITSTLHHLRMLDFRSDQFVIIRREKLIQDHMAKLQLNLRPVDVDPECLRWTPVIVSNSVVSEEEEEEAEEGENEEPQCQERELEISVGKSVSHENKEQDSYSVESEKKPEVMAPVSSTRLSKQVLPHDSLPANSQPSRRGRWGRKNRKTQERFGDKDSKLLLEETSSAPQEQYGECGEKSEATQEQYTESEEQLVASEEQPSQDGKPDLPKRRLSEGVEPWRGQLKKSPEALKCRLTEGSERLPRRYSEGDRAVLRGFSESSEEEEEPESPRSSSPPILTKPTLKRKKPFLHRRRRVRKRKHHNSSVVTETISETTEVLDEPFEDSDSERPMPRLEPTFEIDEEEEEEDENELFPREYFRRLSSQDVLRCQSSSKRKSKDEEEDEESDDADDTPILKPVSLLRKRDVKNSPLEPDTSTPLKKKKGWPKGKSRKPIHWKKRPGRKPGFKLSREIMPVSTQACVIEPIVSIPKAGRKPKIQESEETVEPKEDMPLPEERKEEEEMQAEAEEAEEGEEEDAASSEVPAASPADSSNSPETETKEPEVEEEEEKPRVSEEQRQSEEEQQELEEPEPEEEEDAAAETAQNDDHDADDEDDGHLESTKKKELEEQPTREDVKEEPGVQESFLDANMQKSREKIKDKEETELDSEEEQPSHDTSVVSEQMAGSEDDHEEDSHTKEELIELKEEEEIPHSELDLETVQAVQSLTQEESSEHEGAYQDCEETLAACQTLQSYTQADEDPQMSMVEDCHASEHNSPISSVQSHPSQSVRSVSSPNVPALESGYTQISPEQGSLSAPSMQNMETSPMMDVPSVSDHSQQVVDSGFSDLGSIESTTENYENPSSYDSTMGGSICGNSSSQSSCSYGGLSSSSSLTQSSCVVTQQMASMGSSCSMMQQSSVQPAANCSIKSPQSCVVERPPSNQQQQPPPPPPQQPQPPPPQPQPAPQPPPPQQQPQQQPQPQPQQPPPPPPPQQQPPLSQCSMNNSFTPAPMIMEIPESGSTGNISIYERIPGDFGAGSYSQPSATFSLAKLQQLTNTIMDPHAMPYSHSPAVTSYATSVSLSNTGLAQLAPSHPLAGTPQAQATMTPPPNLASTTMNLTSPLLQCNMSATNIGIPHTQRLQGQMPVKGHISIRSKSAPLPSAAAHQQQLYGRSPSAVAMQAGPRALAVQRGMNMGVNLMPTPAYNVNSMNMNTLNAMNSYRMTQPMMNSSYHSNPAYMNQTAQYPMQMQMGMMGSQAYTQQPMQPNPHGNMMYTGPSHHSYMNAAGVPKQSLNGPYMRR
KAT5 Full length enzyme, sequence (Q92993 whole entry): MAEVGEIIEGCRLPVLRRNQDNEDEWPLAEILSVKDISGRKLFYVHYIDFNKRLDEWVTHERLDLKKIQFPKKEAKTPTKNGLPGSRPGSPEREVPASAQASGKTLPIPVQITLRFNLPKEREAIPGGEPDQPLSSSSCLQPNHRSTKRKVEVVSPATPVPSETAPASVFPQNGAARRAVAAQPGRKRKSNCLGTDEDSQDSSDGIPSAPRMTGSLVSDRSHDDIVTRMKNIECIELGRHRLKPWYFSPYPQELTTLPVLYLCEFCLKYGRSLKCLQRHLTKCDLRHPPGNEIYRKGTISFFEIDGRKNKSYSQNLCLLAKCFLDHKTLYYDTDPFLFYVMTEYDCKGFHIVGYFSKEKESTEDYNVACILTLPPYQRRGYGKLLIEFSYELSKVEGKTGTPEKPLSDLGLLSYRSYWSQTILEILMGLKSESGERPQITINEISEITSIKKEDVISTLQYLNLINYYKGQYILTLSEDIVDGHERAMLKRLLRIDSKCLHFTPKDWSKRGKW

Take `CCOc1cc(C)c(F)cc1S(=O)(=O)Nc1noc2cc(Nc3cc(C4CC4)n[nH]3)c(F)c(OC)c12` [Example 70, N-{6-[(3-cyclopropyl-1H-pyrazol-5-yl)amino]-5-fluoro-4-methoxy-1,2-benzoxazol-3-yl}-2-ethoxy-5-fluoro-4-methylbenzene-1-sulfonamide]: the Ki (as a rule, a dissociation constant, usually derived from enzyme kinetics or from competition with a known ligand) on KAT6A Full length enzyme turned out to be 1.9 nM; at KAT5 Full length enzyme it was 280 nM; in assay [1], 16.4 nM; at KAT8 Full length enzyme, 3880 nM.

`COc1cc2c(NS(=O)(=O)c3c(OC)cccc3OC)noc2cc1Nc1nc(C)cc(C)n1` [Example 108, N-{6-[(4,6-dimethylpyrimidin-2-yl)amino]-5-methoxy-1,2-benzoxazol-3-yl}-2,6-dimethoxybenzene-1-sulfonamide]: the Ki on KAT6A Full length enzyme was 202 nM; on KAT5 Full length enzyme it was 45000 nM; in assay [1] it was 3420 nM; on KAT8 Full length enzyme, more than 13000 nM.

With `COc1cccc(OC)c1S(=O)(=O)Nc1noc2cc(Nc3ccon3)cc(OC)c12` [Example 16, 2,6-dimethoxy-N-{4-methoxy-6-[(1,2-oxazol-3-yl)amino]-1,2-benzoxazol-3-yl}benzene-1-sulfonamide], the Ki came out at 0.2 nM at KAT6A Full length enzyme, 1650 nM on KAT5 Full length enzyme, 702 nM in assay [1] and 2250 nM at KAT8 Full length enzyme.

`CCOc1cc(F)ccc1S(=O)(=O)Nc1noc2cc(Nc3cc(C4CC4)n[nH]3)c(F)c(OC)c12` [Example 76, N-{6-[(3-cyclopropyl-1H-pyrazol-5-yl)amino]-5-fluoro-4-methoxy-1,2-benzoxazol-3-yl}-2-ethoxy-4-fluorobenzene-1-sulfonamide]: the inhibition constant (Ki) at KAT6A Full length enzyme was 11.1 nM; at KAT5 Full length enzyme, 1160 nM; in assay [1], 92 nM; on KAT8 Full length enzyme it was more than 13000 nM.

Turning to `COc1cc2c(NS(=O)(=O)c3c(OC)cc(-c4cnn(C)c4)cc3OC)noc2cc1Nc1cc(C2CC2)n[nH]1` [Example 123, N-{6-[(3-cyclopropyl-1H-pyrazol-5-yl)amino]-5-methoxy-1,2-benzoxazol-3-yl}-2,6-dimethoxy-4-(1-methyl-1H-pyrazol-4-yl)benzene-1-sulfonamide], the inhibition constant Ki at KAT6A Full length enzyme was 0.8 nM; at KAT5 Full length enzyme it was 246 nM; in assay [1], 10.4 nM; at KAT8 Full length enzyme, 189 nM.

As to `CCc1ccnc(Nc2cc3onc(NS(=O)(=O)c4c(OC)cccc4OC)c3cc2OC)n1` [Example 106, N-{6-[(4-ethylpyrimidin-2-yl)amino]-5-methoxy-1,2-benzoxazol-3-yl}-2,6-dimethoxybenzene-1-sulfonamide], the Ki was 11.7 nM at KAT6A Full length enzyme, 1990 nM at KAT5 Full length enzyme, 410 nM in assay [1] and 6430 nM at KAT8 Full length enzyme.

As to `CCn1nc(Nc2cc3onc(NS(=O)(=O)c4c(OC)cccc4OC)c3cc2OC)cc1C1CC1` [Example 113, N-{6-[(5-cyclopropyl-1-ethyl-1H-pyrazol-3-yl)amino]-5-methoxy-1,2-benzoxazol-3-yl}-2,6-dimethoxybenzene-1-sulfonamide], the Ki at KAT6A Full length enzyme is 348 nM; at KAT5 Full length enzyme it was 50000 nM; in assay [1], 9090 nM; on KAT8 Full length enzyme, more than 13000 nM.

With `CCc1cc(Nc2cc3onc(NS(=O)(=O)c4c(OC)cccc4OC)c3cc2OC)nn1C` [Example 73, N-{6-[(5-ethyl-1-methyl-1H-pyrazol-3-yl)amino]-5-methoxy-1,2-benzoxazol-3-yl}-2,6-dimethoxybenzene-1-sulfonamide], the inhibitory constant (Ki) at KAT6A Full length enzyme was found to be 0.7 nM; at KAT5 Full length enzyme it was 287 nM; in assay [1], 31.3 nM; at KAT8 Full length enzyme, 4330 nM.

With `COc1cc2c(NS(=O)(=O)c3c(OC)cc(-c4nccc(C(C)N(C)C)n4)cc3OC)noc2cc1Nc1cc(C2CC2)n[nH]1` (stereo not drawn) [Example 227, N-{6-[(3-cyclopropyl-1 H-pyrazol-5-yl)amino]-5-methoxy-1,2-benzoxazol-3-yl}-4-{4-[1-(dimethylamino)ethyl]pyrimidin-2-yl}-2,6-dimethoxybenzene-1-sulfonamide], the Ki came out at 0.4 nM on KAT6A Full length enzyme, 218 nM on KAT5 Full length enzyme, 6.9 nM in assay [1] and 3490 nM at KAT8 Full length enzyme.

Consider `COc1cccc(OC)c1S(=O)(=O)Nc1noc2cc(N[C@H]3CCOC3)cc(OC)c12` [Example 14, 2,6-dimethoxy-N-(4-methoxy-6-{[(3S)-oxolan-3-yl]amino}-1,2-benzoxazol-3-yl)benzene-1-sulfonamide], for which the Ki at KAT6A Full length enzyme was 10.1 nM; on KAT5 Full length enzyme, 44900 nM; in assay [1] it was more than 2340 nM; at KAT8 Full length enzyme, more than 16300 nM.

As for `CCOc1cc(C(F)F)ccc1S(=O)(=O)Nc1noc2cc(Nc3cc(C4CC4)n[nH]3)c(F)c(OC)c12` [Example 101, N-{6-[(3-cyclopropyl-1H-pyrazol-5-yl)amino]-5-fluoro-4-methoxy-1,2-benzoxazol-3-yl}-4-(difluoromethyl)-2-ethoxybenzene-1-sulfonamide], the Ki came out at 5.3 nM on KAT6A Full length enzyme, 1230 nM at KAT5 Full length enzyme, 50.7 nM in assay [1] and 10300 nM on KAT8 Full length enzyme.

For `COc1cccc(OC)c1S(=O)(=O)Nc1noc2cc(NC3CCC3)cc(OC)c12` [Example 10, N-[6-(cyclobutylamino)-4-methoxy-1,2-benzoxazol-3-yl]-2,6-dimethoxybenzene-1-sulfonamide], the Ki at KAT6A Full length enzyme is 3.1 nM; at KAT5 Full length enzyme, 11800 nM; in assay [1] it was 727 nM; on KAT8 Full length enzyme it was 11500 nM.

Regarding `CCc1cc(Nc2cc3onc(NS(=O)(=O)c4cccc(Oc5ccc(C)cc5)c4)c3cc2OC)n[nH]1` [Example 126, N-{6-[(5-ethyl-1 H-pyrazol-3-yl)amino]-5-methoxy-1,2-benzoxazol-3-yl}-3-(4-methylphenoxy)benzene-1-sulfonamide], the Ki at KAT6A Full length enzyme is 52.1 nM; on KAT5 Full length enzyme it was 5040 nM; in assay [1], 237 nM; at KAT8 Full length enzyme it was more than 13000 nM.

With `COc1cc2c(NS(=O)(=O)c3c(OC)cc(C4CN(C)CCO4)cc3OC)noc2cc1Nc1cc(C2CC2)n[nH]1` (single isomer, unassigned) [Example 153, N-{6-[(3-cyclopropyl-1 H-pyrazol-5-yl)amino]-5-methoxy-1,2-benzoxazol-3-yl}-2,6-dimethoxy-4-(4-methylmorpholin-2-yl)benzene-1-sulfonamide], the Ki on KAT6A Full length enzyme came to 0.8 nM; on KAT5 Full length enzyme, 17.4 nM; in assay [1] it was 5.7 nM; at KAT8 Full length enzyme, 571 nM.

For the compound `COc1cc2c(NS(=O)(=O)c3c(OC)cccc3OC)noc2cc1Nc1cc(C(F)F)n[nH]1` [Example 115, N-(6-{[3-(difluoromethyl)-1H-pyrazol-5-yl]amino}-5-methoxy-1,2-benzoxazol-3-yl)-2,6-dimethoxybenzene-1-sulfonamide], the Ki on KAT6A Full length enzyme came to 0.1 nM; at KAT5 Full length enzyme, 101 nM; in assay [1], 32.2 nM; on KAT8 Full length enzyme, 8920 nM.

For the compound `COc1cc2c(NS(=O)(=O)c3c(OC)cc(-c4ccccn4)cc3OC)noc2cc1Nc1cc(C2CC2)n[nH]1` [Example 118, N-{6-[(3-cyclopropyl-1H-pyrazol-5-yl)amino]-5-methoxy-1,2-benzoxazol-3-yl}-2,6-dimethoxy-4-(pyridin-2-yl)benzene-1-sulfonamide], the Ki at KAT6A Full length enzyme came out at 0.9 nM; on KAT5 Full length enzyme, 66.1 nM; in assay [1], 8.1 nM; on KAT8 Full length enzyme, 731 nM.

As to `CCc1ccc(S(=O)(=O)Nc2noc3cc(Nc4cc(CC)[nH]n4)c(OC)cc23)cc1` [Example 136, 4-ethyl-N-{6-[(5-ethyl-1 H-pyrazol-3-yl)amino]-5-methoxy-1,2-benzoxazol-3-yl}benzene-1-sulfonamide], the inhibitory constant (Ki) was 16.3 nM on KAT6A Full length enzyme, 2940 nM on KAT5 Full length enzyme, 92.7 nM in assay [1] and more than 13000 nM at KAT8 Full length enzyme.

For the compound `COc1cc2c(NS(=O)(=O)c3c(OC)cccc3OC)noc2cc1Nc1ncccn1` [Example 102, 2,6-dimethoxy-N-{5-methoxy-6-[(pyrimidin-2-yl)amino]-1,2-benzoxazol-3-yl}benzene-1-sulfonamide], the inhibition constant Ki on KAT6A Full length enzyme is 1.9 nM; at KAT5 Full length enzyme, 5970 nM; in assay [1], 1440 nM; at KAT8 Full length enzyme, more than 19500 nM.

In the case of `CCc1cc(Nc2cc3onc(NS(=O)(=O)c4ccc(Oc5ccccc5)cc4)c3cc2OC)n[nH]1` [Example 132, N-{6-[(5-ethyl-1 H-pyrazol-3-yl)amino]-5-methoxy-1,2-benzoxazol-3-yl}-4-phenoxybenzene-1-sulfonamide], the Ki at KAT6A Full length enzyme was 82.7 nM; on KAT5 Full length enzyme it was 5520 nM; in assay [1], 410 nM; at KAT8 Full length enzyme, more than 13000 nM.

Take `CCc1cc(Nc2cc3onc(NS(=O)(=O)c4cccc(Oc5ccc(F)cc5)c4)c3cc2OC)n[nH]1` [Example 128, N-{6-[(5-ethyl-1 H-pyrazol-3-yl)amino]-5-methoxy-1,2-benzoxazol-3-yl}-3-(4-fluorophenoxy)benzene-1-sulfonamide]: the Ki at KAT6A Full length enzyme was 38.1 nM; on KAT5 Full length enzyme, 7830 nM; in assay [1], 212 nM; on KAT8 Full length enzyme it was more than 13000 nM.

As to `COc1cc2c(NS(=O)(=O)c3c(OC)cccc3OC)noc2cc1Nc1cc(OC)n(C)n1` [Example 104, 2,6-dimethoxy-N-{5-methoxy-6-[(5-methoxy-1-methyl-1H-pyrazol-3-yl)amino]-1,2-benzoxazol-3-yl}benzene-1-sulfonamide], the Ki was 5.6 nM at KAT6A Full length enzyme, 1040 nM on KAT5 Full length enzyme, 139 nM in assay [1] and more than 10900 nM on KAT8 Full length enzyme.
